Laboratory results from patent publication US6462038B1, “Androgen receptor modulator compounds and methods” (Ligand Pharmaceuticals, Inc., priority 1999, dated 2002).
Where two headings read alike, the source gives them in different places.

Experiments:
hAR = target: T1, hAR (Homo sapiens, UniProt P10275); test: co-transfection assay, AR agonist, CV-1 cells; format: cell-based; details: for AR Agonist CV-1 Cells Efficacy (%): hAR in CV-1 cells, relative to maximum LUC production by reference agonist
T1 construct: expressed in transfected cells; host or cells: CV-1 cells (African green monkey kidney fibroblasts)
T1 sequence (P10275 1-920): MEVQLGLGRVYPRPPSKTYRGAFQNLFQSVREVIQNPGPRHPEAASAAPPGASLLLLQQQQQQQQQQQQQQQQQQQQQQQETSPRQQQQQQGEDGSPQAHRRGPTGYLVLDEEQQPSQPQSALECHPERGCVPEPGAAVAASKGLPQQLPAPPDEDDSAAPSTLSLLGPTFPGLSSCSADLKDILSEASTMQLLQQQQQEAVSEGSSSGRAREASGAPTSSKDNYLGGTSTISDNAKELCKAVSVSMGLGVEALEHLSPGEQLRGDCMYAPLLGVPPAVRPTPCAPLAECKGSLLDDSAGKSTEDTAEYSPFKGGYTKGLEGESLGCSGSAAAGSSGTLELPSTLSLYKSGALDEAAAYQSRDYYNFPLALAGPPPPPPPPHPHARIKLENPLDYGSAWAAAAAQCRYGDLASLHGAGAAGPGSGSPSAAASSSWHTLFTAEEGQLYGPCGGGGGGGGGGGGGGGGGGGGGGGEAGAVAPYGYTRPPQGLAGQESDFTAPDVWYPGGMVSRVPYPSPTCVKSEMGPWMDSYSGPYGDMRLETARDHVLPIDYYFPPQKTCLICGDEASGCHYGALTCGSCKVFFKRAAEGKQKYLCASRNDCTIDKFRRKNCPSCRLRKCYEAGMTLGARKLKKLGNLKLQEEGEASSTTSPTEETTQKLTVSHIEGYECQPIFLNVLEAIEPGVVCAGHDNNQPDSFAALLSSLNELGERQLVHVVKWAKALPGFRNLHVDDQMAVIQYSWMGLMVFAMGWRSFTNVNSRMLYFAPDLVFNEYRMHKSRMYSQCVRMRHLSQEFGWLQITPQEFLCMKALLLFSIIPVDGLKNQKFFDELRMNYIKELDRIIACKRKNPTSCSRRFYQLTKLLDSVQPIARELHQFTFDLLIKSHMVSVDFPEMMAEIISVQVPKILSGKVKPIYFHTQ

[1] = system: immature castrated male rat; test: immature castrated male rat model: ventral prostate, seminal vesicle and levator ani growth; format: in vivo; details: oral; for LA (wet wt) / LA eff (% intact) / SV (wet wt) / SV eff (% intact) / VP (wet wt) / VP eff (% of intact): Table 4, castrated immature rats, once daily, 3 days
Excerpt: The activity of selected compounds of the present invention as AR agonists was investigated in an immature castrated male rat model, a recognized test of the androgen of a given compound, as described in L. G. Hershberger et al., “Myotrophic Activity of 19-Nortestosterone and Other Steroids Determined by Modified Levator Ani Muscle Method” 83 Proc. Soc. Exptl.
The basis of this assay is the fact that the male sexual accessory organs, such as the prostate and seminal vesicles, play an important role in reproductive function. […] F. Labrie et al. 16 Clin. Invest. […] However, this is not a major pathway, since in both animals and humans, castration leads to almost complete involution of the prostate and seminal vesicles without concomitant adrenalectomy. […] Since the male sex organs are the tissues most responsive to modulation of androgen activity, this model is used to determine the androgen-dependent growth of the sex accessory organs in immature castrated rats. […] Male immature rats ([…], 21-day-old, Sprague-Dawley, Harlan) were castrated under metofane anesthesia. Immediately after surgery, animals groups were dosed for 3 days as follows:
At the end of the 3-day treatment, the animals were sacrificed, and the ventral prostates (VP), seminal vesicles (SV), and levator ani (LA) were collected and weighed. The sexual organ weights were first standardized as mg per 100 g of body weight, and the increase in organ weight induced by the compounds of the present invention was compared to the castrate control animals. […] Super-anova (one factor) was used for statistical analysis.
The gain and loss of sexual organ weights reflect the changes of cell number (DNA content) and cell mass (protein content), depending upon the serum androgen concentration. […] Therefore, measurement of organ wet weights is sufficient to indicate the bioactivity of androgens and androgen antagonists.

[2] = read-out: AR Potency Agon, Table 2

## CN1CCOc2cc3c(cc21)c(C(F)(F)F)cc(=O)n3C [Compound 102, 1,2,3,6-Tetrahydro-1,6-dimethyl-9-(trifluoromethyl)-7H-[1,4]oxazino[3,2-g]quinolin-7-one]
hAR
  EC50: > 10 µM
  AR Agonist CV-1 Cells Efficacy (%): na^1 (na = not active (i.e. efficacy of < 20 and potency of > 10,000 nM for the cotransfection assay, and Ki > 1000 nM for the binding assay))
hAR; [2]
  EC50: > 10 µM

## CCN1CCOc2cc3c(cc21)c(C(F)(F)F)cc(=O)n3C [Compound 104, 1-Ethyl-1,2,3,6-tetrahydro-6-methyl-9-(trifluoromethyl)-7H-[1,4]oxazino[3,2-g]quinolin-7-one]
hAR
  EC50: > 10 µM
  AR Agonist CV-1 Cells Efficacy (%): na (na = not active (i.e. efficacy of < 20 and potency of > 10,000 nM for the cotransfection assay, and Ki > 1000 nM for the binding assay))
hAR; [2]
  EC50: > 10 µM

## O=c1cc(C(F)(F)F)c2cc3c(cc2[nH]1)OCCN3CC(F)(F)F [Compound 105, 1,2,3,6-Tetrahydro-1-(2,2,2-trifluoroethyl)-9-(trifluoromethyl)-7H-[1,4]oxazino[3,2-g]quinolin-7-one]
[1]; 3 mg/kg
  LA (wet wt): 33.0 ± 2.4 mg/100 g body weight
  LA eff (% intact): 306 ± 140%
  SV (wet wt): 8.5 ± 0.7 mg/100 g body weight
  SV eff (% intact): 15 ± 13%
  VP (wet wt): 26.9 ± 1.1 mg/100 g body weight
  VP eff (% of intact): 12 ± 5%
[1]; 10 mg/kg
  LA (wet wt): 36.3 ± 1.3 mg/100 g body weight
  LA eff (% intact): 498 ± 73%
  SV (wet wt): 9.9 ± 0.4 mg/100 g body weight
  SV eff (% intact): 42 ± 8.2%
  VP (wet wt): 35.9 ± 2.7 mg/100 g body weight
  VP eff (% of intact): 52 ± 12%
[1]; 30 mg/kg
  LA (wet wt): 35.8 ± 1.2 mg/100 g body weight
  LA eff (% intact): 469 ± 71%
  SV (wet wt): 11.7 ± 1.4 mg/100 g body weight
  SV eff (% intact): 78 ± 26%
  VP (wet wt): 30.1 ± 2.1 mg/100 g body weight
  VP eff (% of intact): 26 ± 9%
[1]; 100 mg/kg
  LA (wet wt): 39.7 ± 0.6 mg/100 g body weight
  LA eff (% intact): 696 ± 36%
  SV (wet wt): 14.4 ± 1.0 mg/100 g body weight
  SV eff (% intact): 131 ± 19%
  VP (wet wt): 42.1 ± 1.6 mg/100 g body weight
  VP eff (% of intact): 80 ± 7%
[1]; immature castrated rat, statement in words
  AR agonist activity: weights of the VP, SV and LA: exhibited AR agonist activity

## O=C1COc2cc3[nH]c(=O)cc(C(F)(F)F)c3cc2N1CC(F)(F)F [Compound 137, 1,6-Dihydro-1-(2,2,2-trifluoroethyl)-9-(trifluoromethyl)-3H-[1,4]oxazino[3,2-g]-quinolin-2,7-dione]
hAR
  EC50: > 10 µM
  AR Agonist CV-1 Cells Efficacy (%): na (na = not active (i.e. efficacy of < 20 and potency of > 10,000 nM for the cotransfection assay, and Ki > 1000 nM for the binding assay))
hAR; [2]
  EC50: > 10 µM
